Results as given in patent US9585393B2, “Saflufenacil, flumioxazin, and 2,4-D weed control compositions and methods of use thereof” (Valent U.S.A., Corporation, priority 2014, dated 2017).

Tests used:
[1] = test system: Yellow Nutsedge; assay: Field test, post emergence weed control: Yellow Nutsedge; type: in vivo, Cyperus esculentus; settings: 12 DAT, MSO 1% v/v
Method: (§1) The following field test was conducted during spring in Mississippi. Sharpen® was used in the test as the source of saflufenacil. Valor® was used in the test as the source of flumioxazin. Roundup Ready soybeans (Glycine max) were used in the test as the crop plant. All of the treatments contained MSO concentrate oil at 1% v/v.
(§2) When the test began, the test plot had Horseweed that was 6 to 20 inches tall. Applications were administered at the concentrations as follows. Saflufenacil was administered at 0.011, 0.017 or 0.022 lb ai/acre (indicated in the table as “S” followed by the amount). Flumioxazin was administered at 0.064 lb ai/acre, and 2,4-D was administered at 0.5 lb ai/acre throughout the experiment. Three days after the treatment (3 DAT), soybeans were planted across the front of the plot. On 7 DAT, another pass of soybeans was planted across the front of the plot with a 30 inch planter. Each test was
(§3) On 11 DAT, readings were taken to determine the survival of Horseweed and Crabgrass. On 12 DAT, readings were taken to determine the survival of Palmer Amaranth, Broadleaf Signalgrass, Common Barnyardgrass, Yellow Nutsedge, and Eclipta. Survival ratings were taken by counting the number of alive and dead plants at the time of the reading. The pytotoxicity of each treatment was also evaluated by examining the soybeans at 11 and 12 DAT. All data was analyzed using Bartlett's test and with p value of […] for determining significance of the results. The Effect of Saflufenacil, Flumioxazin and 2,4-D on Weeds.”

[2] = test system: Broadleaf Signalgrass; assay: Field test, post emergence weed control: Broadleaf Signalgrass; type: in vivo, Brachiaria platyhylla; settings: 12 DAT, MSO 1% v/v
Method: as §1, §2, §3

[3] = test system: Eclipta; assay: Field test, post emergence weed control: Eclipta; type: in vivo, Eclipta prostrata; settings: 12 DAT, MSO 1% v/v
Method: as §1, §2, §3

[4] = test system: Palmer Amaranth; assay: Field test, post emergence weed control: Palmer Amaranth; type: in vivo, Amaranthus palmeri; settings: 12 DAT, MSO 1% v/v
Method: as §1, §2, §3

[5] = test system: Horseweed; assay: Field test, post emergence weed control: Horseweed; type: in vivo, Conyza Canadensis; settings: for Effect on Weeds, Plants: Horseweed: 11 DAT, MSO 1% v/v; for control (Actual % Control) / % Alone: Horseweed; for control (Actual % Control): rounded Table 1 values, saflufenacil 0.011, flumioxazin 0.064, 2,4-D 0.5 lb ai/acre as present; for % Alone: synergy calculation, each component alone (saflufenacil 0.011, 2,4-D 0.5, flumioxazin 0.064 lb ai/acre)
Method: as §1, §2, §3
Applicants used the widely accepted fraction method for determining synergy. The fraction method involves not merely adding together the individual control percentages together, as that will often be greater than 100%. The fraction method involves taking the control as a decimal value (X), multiplying the 1 minus X values together, then taking the “1 minus” value to get the calculated control as a decimal value. For example, if two products give 60% control, the additive or predicted value would be 84% and not 120%. See Rao, V. S., Principles of Weed Science, Second Edition, (2000) 351-352, and the illustrative example below.

[6] = test system: Large Crabgrass; assay: Field test, post emergence weed control: Large Crabgrass; type: in vivo, Digitaria sanguinalis; settings: 11 DAT, MSO 1% v/v
Method: as §1, §2, §3

[7] = test system: Common Barnyardgrass; assay: Field test, post emergence weed control: Common Barnyardgrass; type: in vivo, Echinochloa crus-galli; settings: 12 DAT, MSO 1% v/v
Method: as §1, §2, §3

[8] = no saflufenacil, flumioxazin 0.064 lb ai/acre, 2,4-D 0.5 lb ai/acre
[9] = saflufenacil 0.011 lb ai/acre (flumioxazin 0.064, 2,4-D 0.5 lb ai/acre where in the treatment)
[10] = saflufenacil 0.017 lb ai/acre (flumioxazin 0.064, 2,4-D 0.5 lb ai/acre where in the treatment)
[11] = saflufenacil 0.022 lb ai/acre (flumioxazin 0.064, 2,4-D 0.5 lb ai/acre where in the treatment)

O=C(O)COc1ccc(Cl)cc1Cl [2,4-D, 2,4-Dichlorophenoxyacetic acid]
Effect on Weeds, Plants: Yellow Nutsedge [1, 8]: 8.3
Effect on Weeds, Plants: Broadle Signalgrass [2, 8]: 21.7
Effect on Weeds, Plants: Eclipta [3, 8]: 91.0
Effect on Weeds, Plants: Palmer Amaranth [4, 8]: 91.0
Effect on Weeds, Plants: Horseweed [5, 8]: 11.7
control (Actual % Control) [5]: 12%
% Alone [5]: 12.00%
Effect on Weeds, Plants: Large Crabgrass [6, 8]: 50.0
Effect on Weeds, Plants: Common Barnyardgrass [7, 8]: 15.0

C#CCN1C(=O)COc2cc(F)c(N3C(=O)C4=C(CCCC4)C3=O)cc21 [Flumioxazin, 2-[7-fluoro-3,4-dihydro-3-oxo-4-(2-propynyl)-2H-1,4-benzoxazin-6-yl]-4,5,6,7-tetrahydro-1H-isoindole-1,3(2H)-dione]
Effect on Weeds, Plants: Yellow Nutsedge [1, 8]: 42.5
Effect on Weeds, Plants: Broadle Signalgrass [2, 8]: 45.0
Effect on Weeds, Plants: Eclipta [3, 8]: 86.3
Effect on Weeds, Plants: Palmer Amaranth [4, 8]: 96.0
Effect on Weeds, Plants: Horseweed [5, 8]: 15.0
control (Actual % Control) [5]: 15%
% Alone [5]: 15.00%
Effect on Weeds, Plants: Large Crabgrass [6, 8]: 70.0
Effect on Weeds, Plants: Common Barnyardgrass [7, 8]: 45.0

CC(C)N(C)S(=O)(=O)NCc1cc(-n2c(=O)cc(C(F)(F)F)n(C)c2=O)c(F)cc1Cl [S, N′-[2-chloro-4-fluoro-5-(3-methyl-2,6-dioxo-4-(trifluoromethyl)-3,6-dihydro-1(2H)-pyrimidinyl)benzyl]-N-isopropyl-N-methylsulfamide]
Effect on Weeds, Plants: Yellow Nutsedge [1, 9]: 23.3
Effect on Weeds, Plants: Yellow Nutsedge [1, 10]: 35.0
Effect on Weeds, Plants: Yellow Nutsedge [1, 11]: 30.0
Effect on Weeds, Plants: Broadle Signalgrass [2, 9]: 31.7
Effect on Weeds, Plants: Broadle Signalgrass [2, 10]: 45.0
Effect on Weeds, Plants: Broadle Signalgrass [2, 11]: 31.7
Effect on Weeds, Plants: Eclipta [3, 9]: 83.0
Effect on Weeds, Plants: Eclipta [3, 10]: 91.3
Effect on Weeds, Plants: Eclipta [3, 11]: 93.0
Effect on Weeds, Plants: Palmer Amaranth [4, 9]: 91.0
Effect on Weeds, Plants: Palmer Amaranth [4, 10]: 91.3
Effect on Weeds, Plants: Palmer Amaranth [4, 11]: 96.0
Effect on Weeds, Plants: Horseweed [5, 9]: 66.7
Effect on Weeds, Plants: Horseweed [5, 10]: 78.3
Effect on Weeds, Plants: Horseweed [5, 11]: 86.7
control (Actual % Control) [5]: 67%
% Alone [5]: 67.00%
Effect on Weeds, Plants: Large Crabgrass [6, 9]: 43.3
Effect on Weeds, Plants: Large Crabgrass [6, 10]: 60.0
Effect on Weeds, Plants: Large Crabgrass [6, 11]: 56.7
Effect on Weeds, Plants: Common Barnyardgrass [7, 9]: 31.7
Effect on Weeds, Plants: Common Barnyardgrass [7, 10]: 41.7
Effect on Weeds, Plants: Common Barnyardgrass [7, 11]: 25.0
